Results: PMC5053573, “Structure-Based Design of Tetrahydroisoquinoline-7-carboxamides as Selective Discoidin Domain Receptor 1 (DDR1) Inhibitors” (Journal of Medicinal Chemistry, 2016)

What was measured:
Experiment in all cases: biochemical
Settings in all cases: read-out: %Ctrl @ 1000nM
[1] = molecular target: ABL1(F317I)-nonphosphorylated (Homo sapiens, UniProt P00519, F317I)
[2] = molecular target: ABL1-phosphorylated (Homo sapiens, UniProt P00519)
[3] = molecular target: BMPR1B (Homo sapiens, UniProt O00238)
[4] = molecular target: BRAF (Homo sapiens, UniProt P15056)
[5] = molecular target: CAMK1D (Homo sapiens, UniProt Q8IU85)
[6] = molecular target: CAMK4 (Homo sapiens, UniProt Q16566)
[7] = molecular target: CDK4-cyclinD3 (Homo sapiens, UniProt P11802)
[8] = molecular target: CDK9 (Homo sapiens, UniProt P50750)
Sequence of CDK9 (P50750 whole entry): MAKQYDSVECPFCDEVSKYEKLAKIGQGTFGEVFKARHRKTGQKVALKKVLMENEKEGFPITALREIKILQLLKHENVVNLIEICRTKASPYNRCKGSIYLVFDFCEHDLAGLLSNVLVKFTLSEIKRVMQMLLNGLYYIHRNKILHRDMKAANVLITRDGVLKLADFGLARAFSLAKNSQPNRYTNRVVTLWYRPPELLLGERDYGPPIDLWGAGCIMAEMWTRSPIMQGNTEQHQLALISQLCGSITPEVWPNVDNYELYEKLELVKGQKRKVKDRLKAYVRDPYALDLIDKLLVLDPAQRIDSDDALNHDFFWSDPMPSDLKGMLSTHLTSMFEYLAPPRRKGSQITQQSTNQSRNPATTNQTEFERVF

[9] = molecular target: EPHA7 (Homo sapiens, UniProt Q15375)
[10] = molecular target: EPHB4 (Homo sapiens, UniProt P54760)
[11] = molecular target: ERBB3 (Homo sapiens, UniProt P21860)
Sequence of ERBB3 (P21860 whole entry): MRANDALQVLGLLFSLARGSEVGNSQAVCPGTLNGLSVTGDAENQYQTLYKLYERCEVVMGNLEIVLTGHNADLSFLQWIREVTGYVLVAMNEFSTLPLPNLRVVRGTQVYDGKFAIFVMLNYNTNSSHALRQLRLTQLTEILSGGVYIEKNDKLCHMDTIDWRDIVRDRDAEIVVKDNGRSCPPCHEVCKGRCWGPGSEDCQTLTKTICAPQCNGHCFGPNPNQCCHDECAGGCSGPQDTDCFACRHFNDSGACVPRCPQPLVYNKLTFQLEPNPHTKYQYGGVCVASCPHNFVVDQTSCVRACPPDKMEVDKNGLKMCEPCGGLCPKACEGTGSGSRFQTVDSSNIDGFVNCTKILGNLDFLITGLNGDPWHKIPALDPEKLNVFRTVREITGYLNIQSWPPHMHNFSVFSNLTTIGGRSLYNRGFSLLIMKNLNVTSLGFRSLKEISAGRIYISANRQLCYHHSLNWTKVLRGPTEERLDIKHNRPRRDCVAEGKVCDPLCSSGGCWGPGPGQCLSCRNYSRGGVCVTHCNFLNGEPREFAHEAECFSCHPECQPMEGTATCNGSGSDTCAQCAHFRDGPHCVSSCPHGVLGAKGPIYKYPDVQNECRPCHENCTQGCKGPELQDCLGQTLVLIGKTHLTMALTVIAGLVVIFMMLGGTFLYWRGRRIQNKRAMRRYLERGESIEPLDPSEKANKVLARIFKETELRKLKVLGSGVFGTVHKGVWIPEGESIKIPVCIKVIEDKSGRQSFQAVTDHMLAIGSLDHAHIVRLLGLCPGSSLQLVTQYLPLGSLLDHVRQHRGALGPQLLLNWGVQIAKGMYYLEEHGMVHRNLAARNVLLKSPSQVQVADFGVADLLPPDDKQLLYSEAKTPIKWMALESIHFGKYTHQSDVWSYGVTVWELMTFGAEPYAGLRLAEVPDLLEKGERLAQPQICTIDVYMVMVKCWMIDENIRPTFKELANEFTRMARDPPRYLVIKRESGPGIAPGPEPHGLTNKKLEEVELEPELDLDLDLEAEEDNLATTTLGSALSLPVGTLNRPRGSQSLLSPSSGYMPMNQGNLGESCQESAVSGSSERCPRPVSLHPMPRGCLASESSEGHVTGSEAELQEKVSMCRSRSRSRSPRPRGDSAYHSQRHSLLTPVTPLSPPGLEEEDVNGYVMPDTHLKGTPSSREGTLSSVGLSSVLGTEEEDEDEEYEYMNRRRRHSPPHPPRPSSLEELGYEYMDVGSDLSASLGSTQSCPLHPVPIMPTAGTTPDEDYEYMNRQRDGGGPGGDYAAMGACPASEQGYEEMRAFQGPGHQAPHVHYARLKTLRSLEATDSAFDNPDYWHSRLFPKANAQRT

[12] = molecular target: T1, ERK4 (Homo sapiens, UniProt P31152)
T1 construct: gene MAPK4

[13] = molecular target: FLT3 (Homo sapiens, UniProt P36888)
[14] = molecular target: FLT3(D835Y) (Homo sapiens, UniProt P36888, D835Y)
[15] = molecular target: FLT3(ITD,F691L) (Homo sapiens, UniProt P36888, F691L/ITD)
[16] = molecular target: HIPK1 (Homo sapiens, UniProt Q86Z02)
[17] = molecular target: T2, IKK-beta (Homo sapiens, UniProt O14920)
T2 construct: gene IKBKB

[18] = molecular target: T3, IKK-epsilon (Homo sapiens, UniProt Q14164)
T3 construct: gene IKBKE
T3 sequence (Q14164 whole entry): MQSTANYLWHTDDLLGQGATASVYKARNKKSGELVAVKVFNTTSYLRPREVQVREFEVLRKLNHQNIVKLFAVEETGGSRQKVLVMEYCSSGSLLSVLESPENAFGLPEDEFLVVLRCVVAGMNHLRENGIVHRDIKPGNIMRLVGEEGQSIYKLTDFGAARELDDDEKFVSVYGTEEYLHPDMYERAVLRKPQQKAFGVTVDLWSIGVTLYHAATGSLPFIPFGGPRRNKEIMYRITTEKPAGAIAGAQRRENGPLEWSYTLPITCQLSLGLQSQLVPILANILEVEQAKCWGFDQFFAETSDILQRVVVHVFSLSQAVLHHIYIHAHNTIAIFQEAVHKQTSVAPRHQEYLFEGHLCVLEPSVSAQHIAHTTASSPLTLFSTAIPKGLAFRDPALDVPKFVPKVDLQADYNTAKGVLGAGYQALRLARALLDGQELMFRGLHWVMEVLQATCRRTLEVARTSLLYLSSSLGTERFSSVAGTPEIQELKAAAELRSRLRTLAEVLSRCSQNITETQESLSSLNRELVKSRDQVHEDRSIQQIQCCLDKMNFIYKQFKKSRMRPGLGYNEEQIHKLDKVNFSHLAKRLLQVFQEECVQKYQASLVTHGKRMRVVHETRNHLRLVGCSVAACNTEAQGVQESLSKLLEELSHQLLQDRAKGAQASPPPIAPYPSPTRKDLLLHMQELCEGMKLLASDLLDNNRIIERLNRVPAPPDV

[19] = molecular target: JAK2(JH1domain-catalytic) (Homo sapiens, UniProt O60674)
Sequence of JAK2(JH1domain-catalytic) (O60674 whole entry): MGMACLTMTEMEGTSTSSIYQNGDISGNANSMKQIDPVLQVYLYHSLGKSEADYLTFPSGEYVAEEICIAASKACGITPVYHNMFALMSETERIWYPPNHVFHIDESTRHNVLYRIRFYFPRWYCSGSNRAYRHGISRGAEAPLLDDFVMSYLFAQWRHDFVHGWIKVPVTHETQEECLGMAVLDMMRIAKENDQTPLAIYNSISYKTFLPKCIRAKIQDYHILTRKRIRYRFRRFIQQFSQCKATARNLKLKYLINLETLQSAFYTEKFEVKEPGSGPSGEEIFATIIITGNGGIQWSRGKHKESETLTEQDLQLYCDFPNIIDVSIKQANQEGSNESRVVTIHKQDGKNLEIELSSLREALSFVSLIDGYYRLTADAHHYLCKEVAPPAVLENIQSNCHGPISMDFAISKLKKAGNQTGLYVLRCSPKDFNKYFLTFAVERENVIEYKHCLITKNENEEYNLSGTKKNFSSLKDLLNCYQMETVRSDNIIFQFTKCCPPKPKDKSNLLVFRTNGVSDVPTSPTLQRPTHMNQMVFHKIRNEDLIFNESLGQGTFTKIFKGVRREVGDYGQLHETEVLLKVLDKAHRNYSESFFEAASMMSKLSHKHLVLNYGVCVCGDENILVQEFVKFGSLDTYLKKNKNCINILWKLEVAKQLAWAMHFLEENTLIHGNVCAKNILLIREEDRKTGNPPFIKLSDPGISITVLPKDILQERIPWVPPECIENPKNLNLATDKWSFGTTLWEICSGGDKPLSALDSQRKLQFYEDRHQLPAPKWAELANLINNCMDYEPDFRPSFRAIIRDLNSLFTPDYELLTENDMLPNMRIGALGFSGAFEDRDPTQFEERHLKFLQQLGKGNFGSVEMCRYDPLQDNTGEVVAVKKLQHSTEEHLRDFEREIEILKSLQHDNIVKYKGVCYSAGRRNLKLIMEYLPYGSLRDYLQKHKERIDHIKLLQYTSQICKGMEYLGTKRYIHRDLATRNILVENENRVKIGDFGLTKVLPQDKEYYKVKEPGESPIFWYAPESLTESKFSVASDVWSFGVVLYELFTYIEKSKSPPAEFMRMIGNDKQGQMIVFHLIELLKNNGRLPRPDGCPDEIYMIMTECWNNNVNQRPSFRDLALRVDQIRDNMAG

[20] = molecular target: KIT(D816H) (Homo sapiens, UniProt P10721, D816H)
[21] = molecular target: MAP3K1 (Homo sapiens, UniProt Q13233)
[22] = molecular target: MAP4K5 (Homo sapiens, UniProt Q9Y4K4)
[23] = molecular target: MST1R (Homo sapiens, UniProt Q04912)
[24] = molecular target: NEK11 (Homo sapiens, UniProt Q8NG66)
[25] = molecular target: T4, NIM1 (Homo sapiens, UniProt Q8IY84)
T4 construct: gene NIM1K

[26] = molecular target: T5, PFTAIRE2 (Homo sapiens, UniProt Q96Q40)
T5 construct: gene CDK15

[27] = molecular target: PHKG2 (Homo sapiens, UniProt P15735)
Sequence of PHKG2 (P15735 whole entry): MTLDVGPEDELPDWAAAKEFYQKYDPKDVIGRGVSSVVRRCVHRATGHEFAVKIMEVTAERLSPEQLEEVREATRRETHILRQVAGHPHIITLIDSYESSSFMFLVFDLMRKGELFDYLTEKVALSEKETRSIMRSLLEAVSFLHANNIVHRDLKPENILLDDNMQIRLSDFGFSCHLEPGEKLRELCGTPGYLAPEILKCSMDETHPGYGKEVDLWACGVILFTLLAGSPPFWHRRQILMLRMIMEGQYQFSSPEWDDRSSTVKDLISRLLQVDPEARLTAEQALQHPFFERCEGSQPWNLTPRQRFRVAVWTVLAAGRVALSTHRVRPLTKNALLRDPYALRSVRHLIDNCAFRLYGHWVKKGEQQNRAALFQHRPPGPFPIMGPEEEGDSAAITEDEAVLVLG

[28] = molecular target: T6, PIK4CB (Homo sapiens, UniProt Q9UBF8)
T6 construct: gene PI4KB

[29] = molecular target: PIKFYVE (Homo sapiens, UniProt Q9Y2I7)
[30] = molecular target: T7, PRP4 (Homo sapiens, UniProt Q13523)
T7 construct: gene PRPF4B

[31] = molecular target: RIPK4 (Homo sapiens, UniProt P57078)
[32] = molecular target: T8, S6K1 (Homo sapiens, UniProt P23443)
T8 construct: gene RPS6KB1

[33] = molecular target: T9, SIK (Homo sapiens, UniProt P57059)
T9 construct: gene SIK1

[34] = molecular target: TAOK1 (Homo sapiens, UniProt Q7L7X3)
[35] = molecular target: T10, TRKA (Homo sapiens, UniProt P04629)
T10 construct: gene NTRK1

Sequence of ABL1-phosphorylated (P00519 whole entry): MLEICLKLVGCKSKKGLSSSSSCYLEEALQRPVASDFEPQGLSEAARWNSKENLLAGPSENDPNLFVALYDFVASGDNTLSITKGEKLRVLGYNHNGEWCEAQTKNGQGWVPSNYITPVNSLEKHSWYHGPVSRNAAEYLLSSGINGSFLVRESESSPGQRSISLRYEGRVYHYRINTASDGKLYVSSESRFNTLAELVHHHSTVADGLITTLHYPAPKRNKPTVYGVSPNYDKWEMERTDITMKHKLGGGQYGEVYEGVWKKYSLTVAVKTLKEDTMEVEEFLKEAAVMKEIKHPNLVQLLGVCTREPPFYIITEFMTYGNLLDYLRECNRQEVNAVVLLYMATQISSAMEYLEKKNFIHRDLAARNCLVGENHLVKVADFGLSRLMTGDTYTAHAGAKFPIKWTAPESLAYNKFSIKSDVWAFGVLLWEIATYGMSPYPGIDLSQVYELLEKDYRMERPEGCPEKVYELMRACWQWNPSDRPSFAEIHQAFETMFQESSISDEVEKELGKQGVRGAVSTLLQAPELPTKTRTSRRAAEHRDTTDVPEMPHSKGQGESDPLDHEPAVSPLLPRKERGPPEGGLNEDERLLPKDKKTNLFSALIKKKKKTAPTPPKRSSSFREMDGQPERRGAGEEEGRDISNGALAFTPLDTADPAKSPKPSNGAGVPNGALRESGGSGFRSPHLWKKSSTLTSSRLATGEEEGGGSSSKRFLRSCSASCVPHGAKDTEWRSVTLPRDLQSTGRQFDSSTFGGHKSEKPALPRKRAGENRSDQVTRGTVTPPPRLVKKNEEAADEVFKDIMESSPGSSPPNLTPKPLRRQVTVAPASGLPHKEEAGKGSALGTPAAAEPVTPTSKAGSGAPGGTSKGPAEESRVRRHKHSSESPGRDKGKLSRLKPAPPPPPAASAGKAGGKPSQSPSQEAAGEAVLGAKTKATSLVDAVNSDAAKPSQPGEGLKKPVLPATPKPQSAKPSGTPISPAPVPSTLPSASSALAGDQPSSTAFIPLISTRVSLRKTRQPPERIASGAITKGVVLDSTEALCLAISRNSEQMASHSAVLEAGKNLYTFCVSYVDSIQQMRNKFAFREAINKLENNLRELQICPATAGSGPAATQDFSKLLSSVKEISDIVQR

remaining activity at 1 µM [1]: 80% | remaining activity at 1 µM [2]: 80% | remaining activity at 1 µM [3]: 100% | remaining activity at 1 µM [4]: 96% | remaining activity at 1 µM [5]: 71% | remaining activity at 1 µM [6]: 86% | remaining activity at 1 µM [7]: 100% | remaining activity at 1 µM [8]: 92% | remaining activity at 1 µM [9]: 62% | remaining activity at 1 µM [10]: 76% | remaining activity at 1 µM [11]: 100% | remaining activity at 1 µM [12]: 93% | remaining activity at 1 µM [13]: 56% | remaining activity at 1 µM [14]: 40% | remaining activity at 1 µM [15]: 100% | remaining activity at 1 µM [16]: 85% | remaining activity at 1 µM [17]: 100% | remaining activity at 1 µM [18]: 86% | remaining activity at 1 µM [19]: 100% | remaining activity at 1 µM [20]: 100% | remaining activity at 1 µM [21]: 95% | remaining activity at 1 µM [22]: 95% | remaining activity at 1 µM [23]: 97% | remaining activity at 1 µM [24]: 87% | remaining activity at 1 µM [25]: 100% | remaining activity at 1 µM [26]: 86% | remaining activity at 1 µM [27]: 79% | remaining activity at 1 µM [28]: 95% | remaining activity at 1 µM [29]: 100% | remaining activity at 1 µM [30]: 100% | remaining activity at 1 µM [31]: 100% | remaining activity at 1 µM [32]: 100% | remaining activity at 1 µM [33]: 84% | remaining activity at 1 µM [34]: 100% | remaining activity at 1 µM [35]: 3.2%
Structure (SMILES): Cc1cn(-c2cc(NC(=O)c3ccc4c(c3)CN(c3cncnc3)C[C@@H]4C)cc(C(F)(F)F)c2)cn1 [Compound 6j]
